Data as given in patent publication US20100266503A1, “Breast Cancer Methods, Medicaments and Agents” (priority 2007, published 2010).

Legend:
[1] = system: notch intracellular domain in MCF-7 cells; experiment: Staining for notch intracellular domain expression (surrogate marker for GS activity); type: cell-based; conditions: 48 hours; Gefitinib 15 μM, U0126 10 μM, PD98059 10 μM
Description: (§1) (A) GS activity as measured by a fluorescent assay in MCF7 breast cancer cell lines and MCF10A normal cell lines, with and without treatment with the ERK1/2 inhibitor U0126. (B) Sections of MCF7 breast cancer cell lines stained for notch intracellular domain expression (as a surrogate marker for GS activity). Shown are sections of cells untreated (NO), and cells treated with oestrogen (E2), faslodex (FAS), Gefitinib (Gef), GSI1, and the ERK1/2 inhibitors U0126 (U) and. PD98059 (PD). (C) Sections of MCF10A normal cell lines stained for notch intracellular domain expression. Shown are sections of cells untreated (NO), and cells treated with Gefitinib (Gef) and PD98059 (PD).
(§2) Cancer and normal cell lines were treated with oestrogen (E2), faslodex (FAS), Gefitinib (Gef 15 μM), GSI1, and the ERK1/2 inhibitors U0126 (U) (10 μM) and PD98059 (PD) (10 μM) for 48 hours and a fluorescent assay performed to measure GS activity. The figures show relative fluorescence therefore the amount of fluorescence in the treated cells relative to the untreated minus background (these figures are corrected for background).

[2] = system: GS activity in MCF7 breast cancer cell lines
Description: as §1, §2

[3] = system: GS activity in MCF10A normal cell lines; conditions: 10 μM, 48 hours
Description: as §1, §2

[4] = system: GS Activity in MDA-MB 231 cell line; conditions: 48 h vs vehicle control
Procedure: GS Activity Assay was performed on MDA-MB 231 cell line. Cells were treated with a vehicle control and a U0126 inhibitor for 48 h.

SMILES	notch intracellular domain expression localized to the nucleus compared to untreated cells [1]	increase in GS activity (relative fluorescence vs untreated) ([2]; 10 μM, 48 hours)	increase in GS activity ([2]; breast cancer cells, summary statement)	increase in GS activity (relative fluorescence vs untreated) [3]	GS Activity [4]
C[C@]12CC[C@@H]3c4ccc(O)cc4C[C@@H](CCCCCCCCC[S+]([O-])CCCC(F)(F)C(F)(F)F)[C@H]3[C@@H]1CC[C@@H]2O (some centres unmarked) [Faslodex]	all but the Faslodex appear to increase notch intracellular domain expression				
COc1cc2ncnc(Nc3ccc(F)c(Cl)c3)c2cc1OCCCN1CCOCC1 [Gefitinib]	appear to increase notch intracellular domain expression localized to the nucleus				
COc1cccc(-c2cc(=O)c3ccccc3o2)c1N [PD98059]	appear to increase notch intracellular domain expression localized to the nucleus				
N#CC(=C(/N)Sc1ccccc1N)/C(C#N)=C(\N)Sc1ccccc1N [U0126]	appear to increase notch intracellular domain expression localized to the nucleus	6-12 fold	9 fold	approximately 4 fold	dose dependant increase of GS Activity
